Measured values from US20200236940A1, “2-(HET)ARYL-SUBSTITUTED FUSED HETEROCYCLE DERIVATIVES AS PESTICIDES” (Bayer Aktiengesellschaft, priority 2017, published 2020).

Columns and labels:
Type in all cases: in vivo
Myzus persicae [1] = test: Myzus persicae oral test; conditions: 120 h, application rate 4 ppm, after 5 days, read-out: efficacy
Description: Myzus persicae—Oral Test Solvent: 100 parts by weight of acetone To produce a suitable active ingredient formulation, 1 part by weight of active ingredient is dissolved with the stated parts by weight of solvent and made up to the desired concentration with water. 50 μl of the active ingredient formulation are transferred into microtitre plates and made up to a final volume of 200 μl with 150 μl of IPL41 insect medium (33%+15% sugar). Subsequently, the plates are sealed with parafilm, which a mixed population of green peach aphids (Myzus persicae) within a second microtitre plate is able to puncture and imbibe the solution. After 5 days, the efficacy in % is determined. 100% means that all the aphids have been killed; 0% means that no aphids have been killed.

Myzus persicae [2] = test: Myzus persicae spray test (MYZUPE), Chinese cabbage leaf discs; conditions: foliar, 120 h; for pest or weed control at 20 g/ha: application rate 20 g/ha; for pest or weed control at 20 g/ha / pest or weed control at 100 g/ha: after 5 days, read-out: efficacy; for pest or weed control at 100 g/ha: application rate 100 g/ha
Description: Myzus persicae—Spray Test [table] To produce a suitable active ingredient formulation, 1 part by weight of active ingredient is dissolved with the specified parts by weight of solvent and made up to the desired concentration with water containing an emulsifier concentration of 1000 ppm. To produce further test concentrations, the formulation is diluted with emulsifier-containing water. Discs of Chinese cabbage leaves (Brassica pekinensis) infested by all stages of the green peach aphid (Myzus persicae) are sprayed with an active ingredient formulation of the desired concentration. After 5 days, the efficacy in % is determined. 100% means that all the aphids have been killed; 0% means that no aphids have been killed. Myzus persicae—Spray Test (MYZUPE) [table] To produce a suitable active ingredient formulation, 1 part by weight of active ingredient is dissolved with the specified parts by weight of solvent and made up to the desired concentration with water containing an emulsifier concentration of 1000 ppm. To produce further test concentrations, the formulation is diluted with emulsifier-containing water. Discs of Chinese cabbage leaves (Brassica pekinensis) infested by all stages of the green peach aphid (Myzus persicae) are sprayed with an active ingredient formulation of the desired concentration. After the desired period of time, the efficacy in % is determined. 100% means that all the aphids have been killed; 0% means that no aphids have been killed.

Spodoptera frugiperda [3] = test: Spodoptera frugiperda spray test, maize leaf discs; conditions: for Emax at 100 g/ha: Spodoptera frugiperda, foliar, 168 h, SPODFR, 100 g of ai/ha, 7 dat, read-out: % efficacy; for efficacy: application rate 100 g/ha, after 7 days, caterpillars
Description: Spodoptera frugiperda—Spray Test [table] To produce a suitable active ingredient formulation, 1 part by weight of active ingredient is dissolved with the specified parts by weight of solvent and made up to the desired concentration with water containing an emulsifier concentration of 1000 ppm. To produce further test concentrations, the formulation is diluted with emulsifier-containing water. Leaf discs of maize (Zea mays) are sprayed with an active ingredient formulation of the desired concentration and, after drying, populated with caterpillars of the armyworm (Spodoptera frugiperda). After 7 days, the efficacy in % is determined. 100% means that all the caterpillars have been killed; 0% means that no caterpillar has been killed.

Phaedon cochleariae = Phaedon cochleariae spray test, Chinese cabbage leaf discs; conditions: foliar, 168 h, application rate 100 g/ha, after 7 days, larvae, read-out: efficacy
Description: Phaedon cochleariae—Spray Test
To produce a suitable active ingredient formulation, 1 part by weight of active ingredient is dissolved with the specified parts by weight of solvent and made up to the desired concentration with water containing an emulsifier concentration of 1000 ppm. To produce further test concentrations, the formulation is diluted with emulsifier-containing water.
After 7 days, the efficacy in % is determined. 100% means that all the beetle larvae have been killed; 0% means that no beetle larvae have been killed.

Ctenocephalides felis = Ctenocephalides felis oral test; conditions: application rate 100 ppm, after 2 days
Description: Ctenocephalides felis—Oral Test Solvent: dimethyl sulfoxide To produce a suitable active ingredient formulation, 10 mg of active ingredient are mixed with 0.5 ml of dimethyl sulfoxide. Dilution with citrated cattle blood gives the desired concentration. About 20 unfed adult cat fleas (Ctenocephalides felis) are placed into a chamber which is closed at the top and bottom with gauze. A metal cylinder whose bottom end is closed with parafilm is placed onto the chamber. The cylinder contains the blood/active ingredient formulation, which can be imbibed by the fleas through the parafilm membrane. After 2 days, the kill in % is determined. 100% means that all of the fleas have been killed; 0% means that none of the fleas have been killed.

Myzus persicae [4] = test: Myzus persicae spray test, bell pepper plants; conditions: application rate 20 ppm, after 6 days
Description: Myzus persicae—Spray Test Solvent: 14 parts by weight of dimethylformamide Emulsifier: alkylaryl polyglycol ether To produce a suitable active ingredient formulation, 1 part by weight of active ingredient is dissolved with the specified parts by weight of solvent and made up to the desired concentration with water containing an emulsifier concentration of 1000 ppm. To produce further test concentrations, the formulation is diluted with emulsifier-containing water. If the addition of ammonium salts or/and penetrants is required, these are each added in a concentration of 1000 ppm to the formulation solution. Bell pepper plants (Capsicum annuum) severely infested with the green peach aphid (Myzus persicae) are treated by spraying with the active ingredient formulation in the desired concentration. After 6 days, the kill in % is determined. 100% means that all of the aphids have been killed; 0% means that none of the aphids have been killed.

Lucilia cuprina = Lucilia cuprina test; conditions: after 2 days, L1 larvae
Description: Lucilia cuprina Test Solvent: dimethyl sulfoxide To produce a suitable active ingredient formulation, 10 mg of active ingredient are mixed with 0.5 ml of dimethyl sulfoxide, and the concentrate is diluted with water to the desired concentration. About 20 L1 larvae of the Australian sheep blowfly (Lucilia cuprina) are transferred into a test vessel containing minced horsemeat and the active ingredient formulation of the desired concentration. After 2 days, the kill in % is determined. 100% means that all the larvae have been killed; 0% means that no larvae have been killed.

Nezara viridula = Nezara viridula spray test; conditions: 96 h, NEZAVI, 500 g of ai/ha, 4 dat, read-out: % efficacy
Description: Nezara viridula—Spray Test [table] To produce a suitable active ingredient formulation, 1 part by weight of active ingredient is dissolved with the specified parts by weight of solvent and made up to the desired concentration with water containing an emulsifier concentration of 1000 ppm. To produce further test concentrations, the formulation is diluted with emulsifier-containing water. If the addition of ammonium salts or/and penetrants is required, these are each added in a concentration of 1000 ppm to the formulation solution. Barley plants (Hordeum vulgare) infected with larvae of the Southern green shield bug (Nezara viridula) are sprayed with an active ingredient formulation of the desired concentration. After the desired period of time, the efficacy in % is determined. 100% means that all of the shield bugs have been killed; 0% means that none of the shield bugs have been killed.

Spodoptera frugiperda [5] = test: Spodoptera frugiperda spray test (SPODFR S), cotton leaves; conditions: 168 h, 7 dat, read-out: % efficacy
Description: Spodoptera frugiperda—Spray Test (SPODFR S) Solvent: 14 parts by weight of dimethylformamide Emulsifier: alkylaryl polyglycol ether To produce a suitable active ingredient formulation, 1 part by weight of active ingredient is dissolved with the specified parts by weight of solvent and made up to the desired concentration with water containing an emulsifier concentration of 1000 ppm. To produce further test concentrations, the formulation is diluted with emulsifier-containing water. If the addition of ammonium salts or/and penetrants is required, these are each added in a concentration of 1000 ppm to the formulation solution. Cotton leaves (Gossypium hirsutum) are sprayed with an active ingredient formulation of the desired concentration and populated with caterpillars of the armyworm (Spodoptera frugiperda). After the desired time, the kill in % is determined. 100% means that all caterpillars have been killed; 0% means that none of the caterpillars have been killed.

| SMILES | pest or weed control at 4 ppm (Myzus persicae [1]) [%] | pest or weed control at 20 g/ha (Myzus persicae [2]) [%] | pest or weed control at 100 g/ha (Phaedon cochleariae) [%] | also measured |
| --- | --- | --- | --- | --- |
| CCS(=O)(=O)c1ccc(C(=O)NC)nc1-c1nc2cc(C(F)(F)F)nc(C)c2n1C [Example I-014] | 100 | 90 |  |  |
| CCS(=O)(=O)c1ccc(C(=O)N(C)C)nc1-c1nc2cc(C(F)(F)F)nc(C)c2n1C [Example I-015] | 100 | 90 |  | pest or weed control at 100 g/ha (Myzus persicae [2]): 90% |
| CCS(=O)(=O)c1ccc(-n2cncn2)nc1-c1nc2cc(C(F)(F)F)ncc2n1C [Prior art WO 2016/124563 (Ex. 32), reference compound] |  |  |  | Emax at 100 g/ha (Spodoptera frugiperda [3]): 50% |
| C=Cc1nc(C(F)(F)F)cc2nc(-c3nc(-n4ncn(-c5ccc(Cl)cc5)c4=O)ccc3S(=O)(=O)CC)n(C)c12 [Example I-017] | 100 | 90 |  | efficacy (Spodoptera frugiperda [3]): 100% |
| CCS(=O)(=O)c1ccc(-n2cc(Cl)cn2)nc1-c1nc2cc(C(F)(F)F)nc(C)c2n1C [Example I-004] | 100 |  | 100 |  |
| CCS(=O)(=O)c1ccc(-n2cncn2)nc1-c1nc2cc(C(F)(F)F)nc(Cl)c2n1C [Example I-005] | 100 | 100 |  | pest or weed control at 100 g/ha (Myzus persicae [2]): 100%; Emax at 100 g/ha (Spodoptera frugiperda [3]): 100%; efficacy (Spodoptera frugiperda [3]): 100% |
| CCS(=O)(=O)c1ccc(NC(=O)NC)nc1-c1nc2cc(C(F)(F)F)nc(C#N)c2n1C [Example I-010] | 100 |  |  | efficacy (kill) (Ctenocephalides felis): 100%; efficacy (kill) (Myzus persicae [4]): 99% |
| CCS(=O)(=O)c1ccc(-n2cc(Cl)cn2)nc1-c1nc2cc(C(F)(F)F)nc(C#N)c2n1C [Example I-009, 2-[6-(4-chloro-1H-pyrazol-1-yl)-3-(ethylsulfonyl)pyridin-2-yl]-3-methyl-6-(trifluoromethyl)-3H-imidazo[4,5-c]pyridine-4-carbonitrile] | 90 |  |  | efficacy (kill) (Lucilia cuprina; application rate 20 ppm): 100%; efficacy (kill) (Lucilia cuprina; application rate 100 ppm): 100% |
| CCS(=O)(=O)c1ccc(NC(=O)NC)nc1-c1nc2cc(C(F)(F)F)nc(C)c2n1C [Example I-002] | 100 | 90 |  |  |
| CCS(=O)(=O)c1ccc(N)nc1-c1nc2cc(C(F)(F)F)nc(C#N)c2n1C [Example I-007] | 100 | 90 | 100 |  |
| CCS(=O)(=O)c1ccc(NC(=O)NC)nc1-c1nc2cc(C(F)(F)F)nc(Cl)c2n1C [Example I-006] | 100 | 90 |  | pest or weed control at 100 g/ha (Myzus persicae [2]): 90% |
| CCS(=O)(=O)c1ccc(-n2cc(C#N)cn2)nc1-c1nc2cc(C(F)(F)F)nc(C)c2n1C [Example I-008] | 100 |  | 100 | efficacy (kill) (Ctenocephalides felis): 100%; efficacy (kill) (Lucilia cuprina; application rate 100 ppm): 100% |
| CCS(=O)(=O)c1ccc(-n2ccnn2)nc1-c1nc2cc(C(F)(F)F)ncc2n1C [Prior art according to WO 2016/124563, reference compound] |  |  |  | Emax at 4 g/ha (Myzus persicae [2]; MYZUPE, 4 g of ai/ha, 5 dat, read-out: % efficacy): 0% |
| CCS(=O)(=O)c1ccc(-n2ncn(-c3ccc(Cl)cc3)c2=O)nc1-c1nc2cc(C(F)(F)F)nc(C#N)c2n1C [Example I-011, 2-{6-[4-(4-chlorophenyl)-5-oxo-4,5-dihydro-1H-1,2,4-triazol-1-yl]-3-(ethylsulfonyl)pyridin-2-yl}-3-methyl-6-(trifluoromethyl)-3H-imidazo[4,5-c]pyridine-4-carbonitrile] | 100 |  | 100 | efficacy (kill) (Ctenocephalides felis): 100%; efficacy (kill) (Lucilia cuprina; application rate 20 ppm): 100%; efficacy (kill) (Lucilia cuprina; application rate 100 ppm): 100%; Emax at 500 g/ha (Nezara viridula): 90% |
| CCS(=O)(=O)c1ccc(-n2cncn2)nc1-c1nc2cc(C(F)(F)F)nc(C#N)c2n1C [Example I-012] | 100 |  | 83 | efficacy (kill) (Myzus persicae [4]): 100% |
| CCc1nc(C(F)(F)F)cc2nc(-c3nc(-n4ncn(-c5ccc(Cl)cc5)c4=O)ccc3S(=O)(=O)CC)n(C)c12 [Example I-016] | 100 |  | 100 | efficacy (Spodoptera frugiperda [3]): 100%; Emax at 4 ppm (Spodoptera frugiperda [5]): 100%; Emax at 500 g/ha (Nezara viridula): 50% |
